Patent EP1530968A1, “Galangin components for the maintenance of bone health and/or treatment, alleviaton and/or prevention of bone disorder” (N.V. Nutricia, priority 2003, dated 2005)
Marks after values point to notes of the source that are not given here.

Columns and labels:
estrogen receptor = assay: ERE-Luciferase reporter assay in transiently transfected KS483 cells; assay type: cell-based, mouse; conditions: 48h
Protocol: (§1) Mouse pre-osteoblastic cell line KS483 was maintained in phenol red-free α-MEM containing 10% non-charcoal-treated FBS and penicillin/streptomycin. Cells were seeded in 24-well plates at a density of 1.6x10^4 cells/well, and cultured in phenol red-free α-MEM supplemented with penicillin/streptomycin and 10% charcoal-treated FBS. After 24 hours, cells were transiently transfected with 0.25 µg luciferase reporter (see below) using a lipid-based FuGENE 6 transfection reagent according to the manufacturer's recommendations (Roche, Almere, Netherlands). Cells were transfected with luciferase reporter, i.e. either estrogen-receptor-responsive element (ERE-Luciferase) or BMP-receptor-responsive element (BRE-Luciferas), hereinafter jointly referred to as luciferase reporter. Transfection efficiency was measured by co-transfection of 25 ng of SV40-Renilla control vector.. The transfection medium was changed after 18 hours into new α-MEM, containing penicillin/streptomycin and 10% charcoal-treated FBS. […] After 48h, cells were washed twice with PBS and frozen at -20°C. Luciferase activity was determined by measuring bioluminescence. Luciferase activity was expressed as fold induction ± SEM, which was corrected for transfection efficiency using sv40-renilla luciferase activity. The measured luciferase activity is indicative for the extent of stimulation of the estrogen receptor or BMP receptor by the test component. Subsequently the ratio ERE stimulation/BRE stimulation (ERE/BRE ratio) was determined, which is indicative for the estrogenic effects of the test component (Table 3).

BMP receptor = assay: BRE-Luciferase reporter assay in transiently transfected KS483 cells; assay type: cell-based, mouse; conditions: 48h
Protocol: as §1

[1] = tested on: estrogen receptor (ERE) and BMP receptor (BRE); assay: Ratio ERE stimulation/BRE stimulation (ERE/BRE ratio) in KS483 cells; assay type: cell-based, mouse; conditions: for ERE/BRE: ratio ERE stimulation/BRE stimulation
Protocol: as §1

[2] = tested on: KS483 (mouse pre-osteoblastic cell line); assay: Calcium deposition in KS483 cells (cresolphthalein complexon method); assay type: cell-based; conditions: for Fold increase of calcium (mean ± SEM): 18 days, compared to control levels
Protocol: (§2) KS483 (mouse pre-osteoblastic cell line, Leids Universitair […] Centrum, Leiden, The Netherlands) was maintained in phenol red-free alpha-minimum essential medium (α-MEM) containing 10% non-charcoal-treated fetal bovine serum (FBS) and penicillin/streptomycin. Cells were seeded in 12-well plates at a density of 4.5x10^4 cells/well, and cultured in phenol red-free α-MEM supplemented with penicillin/streptomycin and 10% charcoal-treated FBS. Cells were exposed to vehicle (0.01 wt.% DMSO) , β-estradiol as a positive control (10^-8 M and 10^-9 M in 0.01 wt.% DMSO) or galangin (10^-5 M, 10^-6 M and 10^-7 M in 0.01 wt.% DMSO) for 18 days. From day 4 ascorbic acid (50μg/ml), and from day 11 β-glycerolphosphate (5mM) were added to the culture medium. Every 3-4 days the medium was changed. At day 18, cells were washed twice with ice-cold phosphate buffered saline (PBS), frozen immediately, and stored at -20°C for further use. The cells were lysed in 400μl SSC (15 mM sodium citrate and 150 mM sodium chloride) with 0.01% sodium dodecyl sulfate (SDS). Alkaline phosphatase (ALP) activity was determined kinetically in 25μl aliquots by colorimetric determination of the produced p-nitrophenol at 405 nm, using 6 mmol/L p-nitrophenylphosphate as a substrate at a 37°C and pH 10.5. To correct the ALP activity determination for cell quantity, the DNA content was measured in 100μl aliquots, using Hoechst 33258 and calibrated against a DNA standard (0.5-10μg/mL salmon sperm DNA). Fluorescence was measured at a wavelength of 355-460 nm. Calcium deposition (see Table 2) was determined using the cresolphthalein complexon method according to Henri et al, 1974 (Clinical Biochemistry. Principles and Techniques. Harper and Row, New York, USA. All chemicals were obtained from Sigma-Aldrich (Zwijndrecht, The Netherlands). TABLE 1

[3] = Body weight, fat percentage, food and water intake and uterus weight in SAMP6 mice; assay type: in vivo
Text: (§3) Senescence accelerated mice prone for osteoporosis (SAMP6) and senescence accelerated resistant mice (SAMR) were obtained from Kyoto University, Kyoto, Japan. Mice were bred and kept under specific pathogen free conditions at the Center for small experimental animals in Wageningen. Procedures were approved by the external independent ethical committee for animal care and use (Zeist, The Netherlands). Female SAMP6 mice were randomized on the basis of body weight at the age 20 weeks and divided in 5 groups. […] The galangin was obtained from ICC, Sommerville, NJ, USA. The mice were treated from the age of 22 weeks to the age of 32 weeks. Animals were housed in pairs at 21°C with a 12-hour light/dark cycle in a room without male mice. Until the age of 22 weeks, animals were fed a complete rodent diet, free of flavonoids and isoflavones (RMH-B, Hope Farms, Woerden, The Netherlands). From 22 to 32 weeks of age, animals were fed diets composed according to the RDA of mice (Nutrient requirements of mice, National Academic press, Wahington, USA,1995) and demineralized water. Composition of all diets was identical, except for their galangin contents. All diets and water were supplied ad libitum. Food and water intake and body weight (BW) was registered weekly. Animals were checked daily for abnormal behavior and appearance. […] Implants were replaced after 6 weeks.
(§4) At the age of 22, 25, 28 and 32 weeks, bone mineral density (BMD) and body composition was determined with the aid of Dual energy X-ray absorptiometry (DXA) (Piximus, Lunar Corp, Madison, WI, USA) using the total body mode. Mice were anaesthetized with halothane and front and hind legs were extended. Bone mineral density of the lumbar spine (BMDLS) and the femur (BMDF) were determined within pre-defined regions of interest. Total body fat percentage was determined using the total body mode.

SAMP6 mice = assay: Bone mineral density by DXA in senescence accelerated mice prone for osteoporosis (SAMP6); assay type: in vivo; conditions: for BMD-LS change ( BMDLS) after 10 weeks of treatment / Bone mineral density of the lumbar spine (BMD-LS): female SAMP6 mice, E subcutaneous implant; for BMD-LS change ( BMDLS) after 10 weeks of treatment: age 22 to 32 weeks
Text: as §3, §4

[4] = tested on: KS483 (mouse pre-osteoblastic cell line); assay: Alkaline phosphatase (ALP) activity corrected for DNA in KS483 cells after 18 days exposure; assay type: cell-based; conditions: for ALP activity (mean ± SEM): 18 days, corrected for DNA, compared to control levels
Protocol: as §2

[5] = age 22 weeks (before start of the intervention), galangin 0.4 mg per 100 g feed
[6] = age 25 weeks, treated from 22 weeks, galangin 0.4 mg per 100 g feed
[7] = age 28 weeks, treated from 22 weeks, galangin 0.4 mg per 100 g feed
[8] = age 32 weeks, treated from 22 weeks, galangin 0.4 mg per 100 g feed
[9] = compared with control group, SAMP6 mice, galangin throughout the study, E from 25 weeks of age onwards
[10] = from 25 weeks of age onwards, subcutaneous implant, intact SAMP6-mice

Structure (SMILES) | ERE (estrogen receptor; 10^-5M) | ERE (estrogen receptor; 10^-6M) | ERE (estrogen receptor; 10^-7M) | BRE (BMP receptor; 10^-5M) | BRE (BMP receptor; 10^-6M) | BRE (BMP receptor; 10^-7M) | ERE/BRE ([1]; 10^-5M) | ERE/BRE ([1]; 10^-6M) | ERE/BRE ([1]; 10^-7M) | BMD-LS change ( BMDLS) after 10 weeks of treatment (SAMP6 mice; galangin 0.4 mg per 100 g feed) | Bone mineral density of the lumbar spine (BMD-LS) (SAMP6 mice; [5]) | Bone mineral density of the lumbar spine (BMD-LS) (SAMP6 mice; [6]) | Bone mineral density of the lumbar spine (BMD-LS) (SAMP6 mice; [7]) | Bone mineral density of the lumbar spine (BMD-LS) (SAMP6 mice; [8]) | further results
O=c1c(O)c(-c2ccc(O)c(O)c2)oc2cc(O)cc(O)c12 [Q, quercetin] | 7.9 fold induction | 1.5 fold induction | 1.4 fold induction | 1.6 fold induction | 1.0 fold induction | 0.9 fold induction | 5.0 | 1.6 | 1.6 |  |  |  |  |  | 
O=c1c(O)c(-c2ccccc2)oc2cc(O)cc(O)c12 [Gal, 3,5,7-trihydroxyflavone] | 3.8 fold induction | 1.0 fold induction | 0.9 fold induction | 2.0 fold induction | 0.9 fold induction | 0.9 fold induction | 2.0 | 1.2 | 1.1 | -14.1 ^a | 0.0691 g/cm^2 | 0.0658 g/cm^2 | 0.0621 g/cm^2 | 0.0601 ^a g/cm^2 | Fold increase of calcium (mean ± SEM) ([2]; 10^-5M): 2.3 ± 0.160^a fold induction; Fold increase of calcium (mean ± SEM) ([2]; 10^-6M): 1.2 ± 0.132 fold induction; Fold increase of calcium (mean ± SEM) ([2]; 10^-7M): 1.3 ± 0.038 fold induction; Calcium deposition ([2]; after treatment, result in words): significantly increased; fat percentage ([3]; mouse, in vivo): No statistical differences; food and water intake ([3]; mouse, in vivo): No statistical differences; ratio ERE/BRE relative to kaempherol and quercitin ([1]; galangin ratio as share of the ratio of kaempherol and quercitin): less than 50%; ERE/BRE ratio ([1]; result in words, galangin as compared to kaempherol and quercetin): low; loss of BMD-LS during the 10-week intervention period compared with controls (SAMP6 mice; 0.04 mg galangin/100 g food (so in the source), SAMP6 mice): significantly lower; % inhibition compared to SAMPC (SAMP6 mice; BMD-LS change after 10 weeks of treatment, galangin 0.4 mg per 100 g feed, SAMP6 mice): 40%; BMD-LS compared with controls (SAMP6 mice; at 32 weeks, 0.4 mg galangin/100 g feed, SAMP6 mice): significantly higher; ALP activity (mean ± SEM) ([4]; 10^-5M): 3.7 ± 0.152^a fold induction; ALP activity (mean ± SEM) ([4]; 10^-6M): 1.4 ± 0.055^a fold induction; ALP activity (mean ± SEM) ([4]; 10^-7M): 1.1 ± 0.071 fold induction; ALP activity ([4]; result in words): significantly increased
C[C@]12CC[C@@H]3c4ccc(O)cc4CC[C@H]3[C@@H]1CC[C@@H]2O [β-E, 17 β-estradiol] |  |  |  |  |  |  |  |  |  | +23.4 ^a | 0.0700 g/cm^2 | 0.0774 g/cm^2 | 0.08315 g/cm^2 | 0.0868 ^a g/cm^2 | ERE (estrogen receptor; 10^-8M): 9.0 fold induction; ERE (estrogen receptor; 10^-9M): 15.8 fold induction; ERE (estrogen receptor; 10^-10M): 20.2 fold induction; Uterus weight ([3]; at 32 weeks of age, compared with control group, SAMP6 mice): significantly higher; body weight [3, 9]: significantly lower; fat percentage [3, 9]: significantly lower; food and water intake [3, 9]: significantly lower; BRE (BMP receptor; 10^-8M): 1.0 fold induction; BRE (BMP receptor; 10^-9M): 1.6 fold induction; BRE (BMP receptor; 10^-10M): 1.0 fold induction; ERE/BRE ([1]; 10^-8M): 8.6; ERE/BRE ([1]; 10^-10M): 19.4; BMD-F (SAMP6 mice; [10]): significantly higher; BMD-LS (SAMP6 mice; [10]): significantly higher; ALP activity (mean ± SEM) ([4]; 10^-8M): 2.6 ± 0.129^a fold induction; ALP activity (mean ± SEM) ([4]; 10^-9M): 2.5 ± 0.184^a fold induction
O=c1c(O)c(-c2ccc(O)cc2)oc2cc(O)cc(O)c12 [K, kaemferol] |  |  |  | 2.4 fold induction | 1.4 fold induction | 1.1 fold induction |  |  |  |  |  |  |  |  | 
